From US20060281071A1, “Stearoyl-CoA desaturase assay” (priority 2005, published 2006)

Assays:
Settings in all cases: Hela microsomes 100 μg, 14C-acyl-CoA, NADH (FIG. 3)
mSCD1 = target: T1, mSCD1 (Mus musculus, UniProt P13516); experiment: Δ9-desaturase activity in microsomes of Hela cells over-expressing mSCD1; format: biochemical
T1 sequence (P13516 1-355): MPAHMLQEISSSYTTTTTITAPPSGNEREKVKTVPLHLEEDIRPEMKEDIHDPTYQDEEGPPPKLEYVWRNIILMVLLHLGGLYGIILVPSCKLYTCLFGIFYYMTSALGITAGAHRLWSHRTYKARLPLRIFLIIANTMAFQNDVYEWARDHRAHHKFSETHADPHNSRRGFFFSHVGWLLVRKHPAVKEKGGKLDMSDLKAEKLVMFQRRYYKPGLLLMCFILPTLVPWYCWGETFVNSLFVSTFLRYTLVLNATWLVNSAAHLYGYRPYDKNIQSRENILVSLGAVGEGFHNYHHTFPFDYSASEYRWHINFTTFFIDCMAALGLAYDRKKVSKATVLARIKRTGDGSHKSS
Description: (§1) HeLa cells were cultured at 37° C. in a humidified 5% CO2 atmosphere in Dulbecco's modified Eagle's medium supplemented with 10% (v/v) fetal bovine serum and penicillin/streptomycin. The cells were resuspended in cytomix buffer (120 mM KCl, 0.15 mM CaCl2, 25 mM Hepes/KOH, pH 7.6, 2 mM EGTA, 5 mM MgCl2), and 400 μl of suspension was transferred to a 0.4-cm electroporation cuvette (Invitrogen). 35 μg of pcDNA3 DNA harboring either human or mouse SCD constructs were transfected into Hela cells which have very low Δ9-desaturase activity. DNA was added to the cell suspension in the cuvette and mixed well. The mixture was then exposed to a single electric pulse of 300 V with a capacitance of 1000 microfarads using an Invitrogen pulse system. The cells were allowed to recover in culture medium at 37° C. (5% CO2 atmosphere) for 48 h before harvesting and performing SCD activity assays.
(§2) Δ9-desaturase activity: Microsomes were purified from Hela cells by differential centrifugation and resuspended in a 0.1 M potassium phosphate buffer (pH 6.8). Δ9-desaturase activity was assayed at 25° C. for 7 minutes with either [^14C] stearoyl-CoA or [^14C] palmito-CoA, 2 mM NADH, and 100 μg microsomal protein (Miyazaki, M. et al. (2001) J Biol Chem 276, 39455-39461).

mSCD2 = target: T2, mSCD2 (Mus musculus, UniProt P13011); experiment: Δ9-desaturase activity in microsomes of Hela cells over-expressing mSCD2; format: biochemical
T2 sequence (P13011 1-358): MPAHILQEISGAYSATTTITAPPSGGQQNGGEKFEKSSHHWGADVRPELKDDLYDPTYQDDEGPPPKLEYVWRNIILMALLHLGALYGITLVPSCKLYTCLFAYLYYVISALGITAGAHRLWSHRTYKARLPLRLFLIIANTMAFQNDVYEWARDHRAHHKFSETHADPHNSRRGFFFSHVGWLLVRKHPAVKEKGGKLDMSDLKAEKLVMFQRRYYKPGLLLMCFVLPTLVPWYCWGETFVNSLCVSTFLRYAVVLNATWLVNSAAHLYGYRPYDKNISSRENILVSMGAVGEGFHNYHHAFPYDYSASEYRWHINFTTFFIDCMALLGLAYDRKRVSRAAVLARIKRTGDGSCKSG
Description: as §1, §2

mSCD4 = experiment: Δ9-desaturase activity in microsomes of Hela cells over-expressing mSCD4; format: biochemical, mouse
Description: as §1, §2

hSCD1 = target: T3, hSCD1 (Homo sapiens, UniProt O00767); experiment: Δ9-desaturase activity in microsomes of Hela cells over-expressing hSCD1; format: biochemical; design: Cloning of the full-length human and mouse SCD cDNAs: The full coding region of human SCDs; expressed in transfected cells
T3 sequence (O00767 1-359): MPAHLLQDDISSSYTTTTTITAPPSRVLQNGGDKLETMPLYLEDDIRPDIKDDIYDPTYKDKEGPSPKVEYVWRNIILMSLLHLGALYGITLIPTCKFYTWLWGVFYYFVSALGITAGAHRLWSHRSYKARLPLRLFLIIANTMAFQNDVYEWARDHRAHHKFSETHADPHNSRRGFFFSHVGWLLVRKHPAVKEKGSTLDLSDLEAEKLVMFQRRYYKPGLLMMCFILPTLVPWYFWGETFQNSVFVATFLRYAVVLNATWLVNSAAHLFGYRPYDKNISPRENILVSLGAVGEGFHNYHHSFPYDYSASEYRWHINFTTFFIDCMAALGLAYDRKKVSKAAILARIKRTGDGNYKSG
Description: as §1, §2

hSCD5 = target: T4, hSCD5 (Homo sapiens, UniProt Q86SK9); experiment: Δ9-desaturase activity in microsomes of Hela cells over-expressing hSCD5; format: biochemical; design: Cloning of the full-length human and mouse SCD cDNAs: The full coding region of human SCDs; expressed in transfected cells
T4 sequence (Q86SK9 1-330): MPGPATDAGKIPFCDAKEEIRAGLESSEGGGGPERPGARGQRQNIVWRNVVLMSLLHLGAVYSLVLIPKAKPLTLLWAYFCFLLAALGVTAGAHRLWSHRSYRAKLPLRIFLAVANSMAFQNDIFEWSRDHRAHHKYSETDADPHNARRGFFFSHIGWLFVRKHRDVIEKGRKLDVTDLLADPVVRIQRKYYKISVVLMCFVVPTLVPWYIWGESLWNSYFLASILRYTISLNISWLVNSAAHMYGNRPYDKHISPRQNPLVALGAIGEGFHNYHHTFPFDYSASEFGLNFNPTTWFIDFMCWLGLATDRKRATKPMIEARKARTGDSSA
Description: as §1, §2

With `CCCCCCCCCCCCCCCCCC(=O)SCCNC(=O)CCNC(=O)[C@H](O)C(C)(C)COP(=O)(O)OP(=O)(O)OC[C@H]1O[C@@H](n2cnc3c(N)ncnc32)[C@H](O)[C@@H]1OP(=O)(O)O` [18:0-CoA, stearoyl-CoA] the “Δ9-desaturase activity towards 18:0-CoA relative to 16:0-CoA” value (mSCD1) was 2.2 fold, the “Δ9-desaturase activity towards 18:0-CoA relative to 16:0-CoA” value (mSCD2) was 1.6 fold and the “Δ9-desaturase activity towards 18:0-CoA relative to 16:0-CoA” value (mSCD4) was 2.0 fold. For the same molecule, the “Δ9-desaturase activity towards 18:0-CoA relative to 16:0-CoA” value (hSCD1) was 2.2 fold and the “utilization of 18:0-CoA relative to 16:0-CoA” value (hSCD5) was 6 fold.
